# Assays:
# SARS-CoV-2 3CLpro = SARS-CoV-2 3CLpro (Severe acute respiratory syndrome coronavirus 2, UniProt P0DTD1); format: cell-based
# [1] = target: SARS-CoV-2 3CLpro (wild-type) (Severe acute respiratory syndrome coronavirus 2, UniProt P0DTD1); format: cell-based
Compound,rescue of reporter expression in 3CLpro transfected cells (SARS-CoV-2 3CLpro),potency in dose-response validation [1],inhibition of 3CLpro [1]
CCO[C@@H]1OC(=O)C[C@@H]1NC(=O)[C@@H]1CCCN1C(=O)[C@@H](NC(=O)c1ccc(N)c(Cl)c1)C(C)(C)C [Belnacasan],failed to rescue reporter expression,–,–
CC(C)(C)NC(=O)N[C@H](C(=O)N1C[C@H]2[C@@H]([C@H]1C(=O)NC(CC1CCC1)C(=O)C(N)=O)C2(C)C)C(C)(C)C (stereo partly drawn) [Boceprevir],–,weak to moderate potency,–
O=c1c2ccccc2[se]n1-c1ccccc1 [Ebselen],–,–,no inhibition
Cc1ccc(NC(=O)c2ccc(CN3CCN(C)CC3)cc2)cc1Nc1nc(-c2cccnc2)cs1 [Masitinib],–,–,negative
Ac-DEVD-CHO,failed to rescue reporter expression,–,–
Z-FA-FMK,–,weak to moderate potency,–
